Measurements as given in patent US11117860B2, “Phenyl urea derivatives as n-formyl peptide receptor modulators” (Allergan, Inc., priority 2016, dated 2021).
pEC50: −log10 of the molar value.

Tests used:
[1] = biological target: T1, FPR2 (Homo sapiens, UniProt P25090); assay: compound-induced calcium activity on FLIPR Tetra, CHO-Gα16 cells stably expressing FPR2; format: cell-based; set-up: FPR2 Ga16-CHO (% eff): unit not given here; conditions: for FPR2 Ga16-CHO (% eff): efficacy value in parentheses; for pEC50: tested at 0.61 to 10,000 nM, read-out: FPR2 Ga16-CHO EC50
T1 construct: expressed in transfected cells
T1 sequence (P25090 1-351): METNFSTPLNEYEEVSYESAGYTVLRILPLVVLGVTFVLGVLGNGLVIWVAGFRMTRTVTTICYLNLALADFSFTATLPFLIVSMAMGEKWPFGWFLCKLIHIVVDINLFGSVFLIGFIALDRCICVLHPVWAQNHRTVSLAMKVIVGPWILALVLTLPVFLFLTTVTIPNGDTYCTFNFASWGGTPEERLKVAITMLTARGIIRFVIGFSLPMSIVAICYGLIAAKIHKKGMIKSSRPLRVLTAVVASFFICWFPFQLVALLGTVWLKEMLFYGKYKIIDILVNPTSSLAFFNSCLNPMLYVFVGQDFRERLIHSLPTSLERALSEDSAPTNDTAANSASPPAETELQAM
Description: (§1) CHO-Gα16 cells stably expressing FPR1 or FPR2 were cultured in (Ham's F12 nutrient media, 10% fetal bovine serum, 1% PSA (penicillin, streptomycin, amphotericin B antiobiotic/antimycotic), 400 μg/ml geneticin and 50 μg/ml hygromycin). In general, the day before the experiment, 18,000 cells/well were plated in a 384-well clear bottom poly-D-lysine coated plate. The following day the screening compound-induced calcium activity was assayed on the FLIPR^Tetra. The drug plates were prepared in 384-well microplates using the EP3 and the MultiPROBE robotic liquid handling systems. Compounds were tested at concentrations ranging from 0.61 to 10,000 nM. Results are expressed as EC50 (nM) and efficacy values.

[2] = biological target: T2, FPR1 (Homo sapiens, UniProt P21462); assay: compound-induced calcium activity on FLIPR Tetra, CHO-Gα16 cells stably expressing FPR1; format: cell-based; conditions: for FPR1 Ga16-CHO (% eff): efficacy value in parentheses; for FPR1 Ga16-CHO (% eff) / pEC50: CHO-Gα16 cells stably expressing FPR1, calcium activity; for Ratio FPR2:FPR1 (EC50): ratio of EC50 for agonizing FPR2 to EC50 for agonizing FPR1 (selectivity for FPR1); for pEC50: tested at 0.61 to 10,000 nM, read-out: FPR1 Ga16-CHO EC50
T2 construct: expressed in transfected cells
T2 sequence (P21462 1-350): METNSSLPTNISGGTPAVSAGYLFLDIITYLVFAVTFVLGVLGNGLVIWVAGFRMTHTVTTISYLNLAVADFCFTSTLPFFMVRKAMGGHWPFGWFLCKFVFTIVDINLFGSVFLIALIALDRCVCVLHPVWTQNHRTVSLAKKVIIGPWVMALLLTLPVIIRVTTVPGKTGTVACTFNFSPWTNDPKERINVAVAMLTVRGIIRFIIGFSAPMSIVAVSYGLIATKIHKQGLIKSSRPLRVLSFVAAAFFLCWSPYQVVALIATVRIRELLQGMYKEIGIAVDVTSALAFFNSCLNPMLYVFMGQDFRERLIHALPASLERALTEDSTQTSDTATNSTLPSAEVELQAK
Description: as §1

Compound | FPR2 Ga16-CHO (% eff) [1] | FPR1 Ga16-CHO (% eff) [2] | Ratio FPR2:FPR1 (EC50) [2] | pEC50 [1] | pEC50 [2]
CC(C)CC(C(=O)O)C(C)NC(=O)Nc1ccc(Br)cc1 (racemic) [Compound 102, 2-(1-(3-(4-bromophenyl)ureido)ethyl)-4-methylpentanoic acid] | 0.63 | 92% | 22 |  | 
CC(C)CC(C(=O)O)C(C)NC(=O)Nc1ccc(Br)cc1 (racemic) [Compound 103, 2-(1-(3-(4-bromophenyl)ureido)ethyl)-4-methylpentanoic acid] | 1.04 | 97% | 79 |  | 
CC(C)CC(C(=O)OC(C)(C)C)C(C)NC(=O)Nc1ccc(Br)cc1 (single isomer, unassigned) [Compound 100, tert-butyl 2-(1-(3-(4-bromophenyl)ureido)ethyl)-4-methylpentanoate] | 0.75 | 80% | 2.6 | 5.42 | 5.85
CC(C)CC(C(=O)OC(C)(C)C)C(C)NC(=O)Nc1ccc(Br)cc1 (single isomer, unassigned) [Compound 101, tert-butyl 2-(1-(3-(4-bromophenyl)ureido)ethyl)-4-methylpentanoate] | 0.73 | 66% | 1 | ≤ 5.00 | ≤ 5.00
CC(C)CC(C(=O)O)C(C)NC(=O)Nc1ccc(Br)cc1 (single isomer, unassigned) [Compound 102, 2-(1-(3-(4-bromophenyl)ureido)ethyl)-4-methylpentanoic acid] |  |  |  | 5.98 | 7.32

More lines, now with the values ahead:

FPR2 Ga16-CHO (% eff) [1] | FPR1 Ga16-CHO (% eff) [2] | Ratio FPR2:FPR1 (EC50) [2] | pEC50 [1] | pEC50 [2] | Compound
 |  |  | 7.39 | 9.28 | CC(C)CC(C(=O)O)C(C)NC(=O)Nc1ccc(Br)cc1 (single isomer, unassigned) [Compound 103, 2-(1-(3-(4-bromophenyl)ureido)ethyl)-4-methylpentanoic acid]
0.89 | 94% | 17 | 6.07 | 7.29 | CC(C)CC(C(=O)O)C(C)NC(=O)Nc1ccc(Br)cc1 (single isomer, unassigned) [Compound 104, 2-(1-(3-(4-bromophenyl)ureido)ethyl)-4-methylpentanoic acid]
0.56 | 103% | 249 | 5.49 | 7.89 | CC(C)CC(C(=O)O)C(C)NC(=O)Nc1ccc(Br)cc1 (single isomer, unassigned) [Compound 105, 2-(1-(3-(4-bromophenyl)ureido)ethyl)-4-methylpentanoic acid]
0.75 | 91% | 101 | 5.00 | 7.01 | CC(C)CC(C(=O)O)C(C)NC(=O)Nc1ccc(Br)cc1 (single isomer, unassigned) [Compound 106, 2-(1-(3-(4-bromophenyl)ureido)ethyl)-4-methylpentanoic acid]
0.96 | 93% | 15 | 7.60 | 8.77 | CC(C)CC(C(=O)O)C(C)NC(=O)Nc1ccc(Br)cc1 (single isomer, unassigned) [Compound 107, 2-(1-(3-(4-bromophenyl)ureido)ethyl)-4-methylpentanoic acid]
